Results published in patent publication US10266537B2, “3-acetylenyl-pyrazole-pyrimidine derivative, and preparation method therefor and uses thereof” (Si Chuan University, priority 2015, dated 2019).
Each block holds one compound with its values, some of them ahead of it.

How the values were obtained:
HBL-1 = assay: cells; settings: Homo sapiens, HBL1, 72 h, read-out: Proliferation inhibitory activity IC50
MM.1S = assay: Cell proliferation inhibition assay (MTT); assay type: cell-based; settings: Homo sapiens, MM1.S, 72 hours, read-out: Proliferation inhibitory activity IC50
MuSK(h) = MuSK(h) (Homo sapiens (Human), UniProt O15146); assay: Kinase inhibition assay (KinaseProfiler, 33P-ATP); assay type: biochemical; settings: read-out: The percentage of the remaining active protein
[1] = target: PI3 Kinase (p110d/p85a)(h) (Homo sapiens (Human), UniProt O00329); assay: Kinase inhibition assay (KinaseProfiler, 33P-ATP); assay type: biochemical; settings: read-out: The percentage of the remaining active protein
PI3 Kinase (p110d/p85a)(h), sequence (O00329 whole entry): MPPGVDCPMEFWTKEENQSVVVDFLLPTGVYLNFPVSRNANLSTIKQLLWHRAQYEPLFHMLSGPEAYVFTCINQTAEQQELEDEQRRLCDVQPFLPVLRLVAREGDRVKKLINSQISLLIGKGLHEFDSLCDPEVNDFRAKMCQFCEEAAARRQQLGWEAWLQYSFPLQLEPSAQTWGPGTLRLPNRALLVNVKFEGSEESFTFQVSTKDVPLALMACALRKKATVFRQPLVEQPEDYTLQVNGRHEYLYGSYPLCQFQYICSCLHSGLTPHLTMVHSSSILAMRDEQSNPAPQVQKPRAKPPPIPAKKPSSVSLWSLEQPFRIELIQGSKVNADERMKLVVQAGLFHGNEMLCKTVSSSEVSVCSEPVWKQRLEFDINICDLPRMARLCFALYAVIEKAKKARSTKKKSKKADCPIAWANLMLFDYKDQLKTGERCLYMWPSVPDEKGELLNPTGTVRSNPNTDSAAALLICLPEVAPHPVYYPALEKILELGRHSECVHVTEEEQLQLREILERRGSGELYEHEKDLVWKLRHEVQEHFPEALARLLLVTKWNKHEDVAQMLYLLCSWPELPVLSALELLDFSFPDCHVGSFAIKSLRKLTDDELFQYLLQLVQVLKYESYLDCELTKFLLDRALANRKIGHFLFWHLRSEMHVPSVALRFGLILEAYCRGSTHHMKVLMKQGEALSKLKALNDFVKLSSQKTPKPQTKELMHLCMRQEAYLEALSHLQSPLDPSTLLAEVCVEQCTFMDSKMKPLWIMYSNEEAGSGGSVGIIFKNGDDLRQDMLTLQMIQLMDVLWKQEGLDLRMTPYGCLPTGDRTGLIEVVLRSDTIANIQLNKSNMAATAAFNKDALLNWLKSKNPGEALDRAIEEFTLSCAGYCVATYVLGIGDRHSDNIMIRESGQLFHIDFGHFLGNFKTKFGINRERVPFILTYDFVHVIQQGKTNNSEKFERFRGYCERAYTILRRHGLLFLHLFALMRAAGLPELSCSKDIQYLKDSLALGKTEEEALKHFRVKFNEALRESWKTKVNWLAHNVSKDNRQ
PI3 Kinase (p110d/p85a)(h), sequence (P27986 whole entry partner): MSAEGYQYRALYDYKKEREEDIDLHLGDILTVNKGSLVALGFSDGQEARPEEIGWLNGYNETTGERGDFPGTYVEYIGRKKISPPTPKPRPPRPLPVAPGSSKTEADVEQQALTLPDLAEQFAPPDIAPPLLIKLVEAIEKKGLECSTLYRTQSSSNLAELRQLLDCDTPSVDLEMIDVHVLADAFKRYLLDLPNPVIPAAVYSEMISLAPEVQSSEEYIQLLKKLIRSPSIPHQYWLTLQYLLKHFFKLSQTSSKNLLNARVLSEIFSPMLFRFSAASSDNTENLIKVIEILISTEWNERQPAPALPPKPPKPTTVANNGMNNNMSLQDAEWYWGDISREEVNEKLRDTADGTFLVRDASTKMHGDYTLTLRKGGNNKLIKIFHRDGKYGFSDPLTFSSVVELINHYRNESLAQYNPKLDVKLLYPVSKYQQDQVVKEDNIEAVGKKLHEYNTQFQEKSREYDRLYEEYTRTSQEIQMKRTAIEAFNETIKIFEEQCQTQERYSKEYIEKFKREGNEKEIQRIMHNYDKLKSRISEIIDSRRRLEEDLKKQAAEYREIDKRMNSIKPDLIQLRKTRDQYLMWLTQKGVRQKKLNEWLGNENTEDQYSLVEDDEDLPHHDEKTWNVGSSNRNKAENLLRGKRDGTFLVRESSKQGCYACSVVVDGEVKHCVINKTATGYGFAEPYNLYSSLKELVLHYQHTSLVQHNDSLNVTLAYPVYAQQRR

GRK7(h) = GRK7(h) (Homo sapiens (Human), UniProt Q8WTQ7); assay: Kinase inhibition assay (KinaseProfiler, 33P-ATP); assay type: biochemical; settings: read-out: The percentage of the remaining active protein
HIPK3(h) = HIPK3(h) (Homo sapiens (Human), UniProt Q9H422); assay: Kinase inhibition assay (KinaseProfiler, 33P-ATP); assay type: biochemical; settings: read-out: The percentage of the remaining active protein
HIPK3(h), sequence (Q9H422 whole entry): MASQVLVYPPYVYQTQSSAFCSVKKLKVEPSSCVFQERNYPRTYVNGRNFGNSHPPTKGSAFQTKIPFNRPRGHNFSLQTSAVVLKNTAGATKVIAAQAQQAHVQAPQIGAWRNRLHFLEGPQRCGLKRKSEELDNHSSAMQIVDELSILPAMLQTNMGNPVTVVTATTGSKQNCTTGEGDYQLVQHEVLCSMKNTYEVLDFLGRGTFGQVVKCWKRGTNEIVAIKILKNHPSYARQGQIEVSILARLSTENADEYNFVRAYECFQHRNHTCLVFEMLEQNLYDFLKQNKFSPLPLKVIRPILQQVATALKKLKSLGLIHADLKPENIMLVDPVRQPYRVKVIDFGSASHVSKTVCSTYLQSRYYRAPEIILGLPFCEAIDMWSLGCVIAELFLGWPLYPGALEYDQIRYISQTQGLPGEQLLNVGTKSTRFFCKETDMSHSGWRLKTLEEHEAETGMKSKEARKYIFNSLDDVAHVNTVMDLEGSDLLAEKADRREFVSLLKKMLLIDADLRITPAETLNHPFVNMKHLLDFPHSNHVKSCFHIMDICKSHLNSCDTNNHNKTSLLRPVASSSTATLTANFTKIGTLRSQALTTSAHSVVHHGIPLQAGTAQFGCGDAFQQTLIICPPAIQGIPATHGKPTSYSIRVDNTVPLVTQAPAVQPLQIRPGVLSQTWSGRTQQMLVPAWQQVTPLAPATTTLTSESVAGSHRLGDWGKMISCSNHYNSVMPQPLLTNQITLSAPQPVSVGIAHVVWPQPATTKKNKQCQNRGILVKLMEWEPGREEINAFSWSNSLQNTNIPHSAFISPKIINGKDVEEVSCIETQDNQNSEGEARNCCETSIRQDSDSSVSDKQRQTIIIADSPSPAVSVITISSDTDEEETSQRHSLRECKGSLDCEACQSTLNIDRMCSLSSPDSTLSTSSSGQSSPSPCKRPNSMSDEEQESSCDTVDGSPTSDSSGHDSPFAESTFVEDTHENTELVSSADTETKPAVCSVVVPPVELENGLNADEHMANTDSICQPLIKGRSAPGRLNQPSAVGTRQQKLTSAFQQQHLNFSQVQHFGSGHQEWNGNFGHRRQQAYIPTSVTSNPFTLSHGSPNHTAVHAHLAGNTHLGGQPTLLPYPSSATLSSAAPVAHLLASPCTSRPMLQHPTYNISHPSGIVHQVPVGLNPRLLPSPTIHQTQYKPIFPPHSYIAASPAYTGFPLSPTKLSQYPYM

Fes(h) = Fes(h) (Homo sapiens (Human), UniProt P07332); assay: Kinase inhibition assay (KinaseProfiler, 33P-ATP); assay type: biochemical; settings: read-out: The percentage of the remaining active protein
Rsk1(r) = Rsk1(r) (Rattus norvegicus (Rat), UniProt Q63531); assay: Kinase inhibition assay (KinaseProfiler, 33P-ATP); assay type: biochemical; settings: read-out: The percentage of the remaining active protein
Rsk1(r), sequence (Q63531 whole entry): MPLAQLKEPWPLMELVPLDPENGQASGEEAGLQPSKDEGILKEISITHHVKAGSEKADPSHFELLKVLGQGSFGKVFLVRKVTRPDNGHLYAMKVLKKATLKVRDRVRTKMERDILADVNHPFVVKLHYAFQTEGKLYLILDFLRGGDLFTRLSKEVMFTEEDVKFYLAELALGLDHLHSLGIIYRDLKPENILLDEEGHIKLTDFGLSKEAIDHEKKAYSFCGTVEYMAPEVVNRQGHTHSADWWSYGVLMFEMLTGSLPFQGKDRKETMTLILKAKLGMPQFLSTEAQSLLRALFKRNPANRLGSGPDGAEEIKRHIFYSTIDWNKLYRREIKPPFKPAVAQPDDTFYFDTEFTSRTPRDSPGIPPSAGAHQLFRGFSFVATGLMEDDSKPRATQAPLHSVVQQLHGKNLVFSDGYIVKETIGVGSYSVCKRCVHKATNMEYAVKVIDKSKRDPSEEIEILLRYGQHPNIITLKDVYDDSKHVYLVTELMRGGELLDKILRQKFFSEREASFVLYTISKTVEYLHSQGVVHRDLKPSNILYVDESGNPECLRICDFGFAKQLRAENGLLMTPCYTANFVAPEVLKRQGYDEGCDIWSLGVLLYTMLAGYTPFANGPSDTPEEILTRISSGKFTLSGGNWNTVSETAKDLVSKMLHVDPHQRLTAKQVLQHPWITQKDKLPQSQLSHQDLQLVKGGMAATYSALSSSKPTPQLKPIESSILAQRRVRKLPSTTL

Plk3(h) = Plk3(h) (Homo sapiens (Human), UniProt Q9H4B4); assay: Kinase inhibition assay (KinaseProfiler, 33P-ATP); assay type: biochemical; settings: read-out: The percentage of the remaining active protein
LRRK2(h) = LRRK2(h) (Homo sapiens (Human), UniProt Q5S007); assay: Kinase inhibition assay (KinaseProfiler, 33P-ATP); assay type: biochemical; settings: read-out: The percentage of the remaining active protein
Ret(V804M)(h) = Ret(V804M)(h) (Homo sapiens (Human), UniProt P07949, V804M); assay: Kinase inhibition assay (KinaseProfiler, 33P-ATP); assay type: biochemical; settings: read-out: The percentage of the remaining active protein
BrSK2(h) = BrSK2(h) (Homo sapiens (Human), UniProt Q8IWQ3); assay: Kinase inhibition assay (KinaseProfiler, 33P-ATP); assay type: biochemical; settings: read-out: The percentage of the remaining active protein
IGF-1R(h) = IGF-1R(h) (Homo sapiens (Human), UniProt P08069); assay: Kinase inhibition assay (KinaseProfiler, 33P-ATP); assay type: biochemical; settings: read-out: The percentage of the remaining active protein
IGF-1R(h), sequence (P08069 31-1367): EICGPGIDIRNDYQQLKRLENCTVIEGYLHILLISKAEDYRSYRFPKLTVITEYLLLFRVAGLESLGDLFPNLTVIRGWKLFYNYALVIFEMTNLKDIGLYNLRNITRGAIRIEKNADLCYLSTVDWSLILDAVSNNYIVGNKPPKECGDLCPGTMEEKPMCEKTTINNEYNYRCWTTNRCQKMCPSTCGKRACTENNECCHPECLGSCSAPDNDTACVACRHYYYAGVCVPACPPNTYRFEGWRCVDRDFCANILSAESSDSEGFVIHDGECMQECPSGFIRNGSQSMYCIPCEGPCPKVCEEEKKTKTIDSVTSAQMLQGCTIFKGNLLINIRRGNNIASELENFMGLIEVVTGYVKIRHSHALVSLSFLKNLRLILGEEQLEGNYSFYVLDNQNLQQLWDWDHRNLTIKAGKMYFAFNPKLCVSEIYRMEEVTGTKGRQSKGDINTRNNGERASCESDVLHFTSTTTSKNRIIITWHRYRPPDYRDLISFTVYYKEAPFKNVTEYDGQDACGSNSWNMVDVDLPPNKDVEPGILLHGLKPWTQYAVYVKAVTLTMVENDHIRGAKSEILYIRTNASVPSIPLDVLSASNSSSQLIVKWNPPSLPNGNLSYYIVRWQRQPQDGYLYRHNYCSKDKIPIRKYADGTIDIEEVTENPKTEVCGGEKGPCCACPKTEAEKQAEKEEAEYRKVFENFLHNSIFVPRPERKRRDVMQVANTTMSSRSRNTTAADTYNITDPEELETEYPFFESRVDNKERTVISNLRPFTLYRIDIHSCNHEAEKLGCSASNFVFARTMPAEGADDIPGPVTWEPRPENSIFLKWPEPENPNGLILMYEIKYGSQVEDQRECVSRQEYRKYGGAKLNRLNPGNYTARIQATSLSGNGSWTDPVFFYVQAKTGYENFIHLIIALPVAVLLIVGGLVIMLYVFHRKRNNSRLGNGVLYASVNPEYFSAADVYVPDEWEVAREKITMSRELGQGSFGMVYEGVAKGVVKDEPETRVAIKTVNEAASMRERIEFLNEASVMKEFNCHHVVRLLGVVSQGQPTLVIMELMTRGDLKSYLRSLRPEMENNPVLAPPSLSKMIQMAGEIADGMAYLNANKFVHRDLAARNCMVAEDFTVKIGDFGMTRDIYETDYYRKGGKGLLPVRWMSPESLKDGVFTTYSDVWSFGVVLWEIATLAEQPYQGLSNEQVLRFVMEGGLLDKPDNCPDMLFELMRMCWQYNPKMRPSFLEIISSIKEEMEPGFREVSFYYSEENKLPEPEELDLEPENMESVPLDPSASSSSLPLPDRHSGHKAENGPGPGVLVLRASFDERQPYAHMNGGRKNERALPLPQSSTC

IRE1(h) = IRE1(h) (Homo sapiens (Human), UniProt O75460); assay: Kinase inhibition assay (KinaseProfiler, 33P-ATP); assay type: biochemical; settings: read-out: The percentage of the remaining active protein
Met(D1246N)(h) = Met(D1246N)(h) (Homo sapiens (Human), UniProt P08581, D1246N); assay: Kinase inhibition assay (KinaseProfiler, 33P-ATP); assay type: biochemical; settings: read-out: The percentage of the remaining active protein
IRAK4(h) = IRAK4(h) (Homo sapiens (Human), UniProt Q9NWZ3); assay: Kinase inhibition assay (KinaseProfiler, 33P-ATP); assay type: biochemical; settings: read-out: The percentage of the remaining active protein
ZR-75-1 = assay: Cell proliferation inhibition assay (MTT); assay type: cell-based; settings: Homo sapiens, 72 hours, read-out: Proliferation inhibitory activity IC50
[2] = target: PI3 Kinase (p110a(E542K)/p85a)(m) (Mus musculus (Mouse), UniProt P42337, E542K); assay: Kinase inhibition assay (KinaseProfiler, 33P-ATP); assay type: biochemical; settings: read-out: The percentage of the remaining active protein
ACK1 = ACK1 (Homo sapiens (Human), UniProt Q07912); assay: Kinase inhibition assay (KinaseProfiler, 33P-ATP); assay type: biochemical; settings: ACK1(h), read-out: The percentage of the remaining active protein
EphA7 = EphA7 (Homo sapiens (Human), UniProt Q15375); assay: Kinase inhibition assay (KinaseProfiler, 33P-ATP); assay type: biochemical; settings: EphA7(h), read-out: The percentage of the remaining active protein
ZIPK(h) = ZIPK(h) (Homo sapiens (Human), UniProt O43293); assay: Kinase inhibition assay (KinaseProfiler, 33P-ATP); assay type: biochemical; settings: read-out: The percentage of the remaining active protein
CDK4/cyclinD3(h) = CDK4/cyclinD3(h) (Homo sapiens (Human), UniProt P11802); assay: Kinase inhibition assay (KinaseProfiler, 33P-ATP); assay type: biochemical; settings: read-out: The percentage of the remaining active protein
CDK2/cyclinA(h) = CDK2/cyclinA(h) (Homo sapiens (Human), UniProt P24941); assay: Kinase inhibition assay (KinaseProfiler, 33P-ATP); assay type: biochemical; settings: read-out: The percentage of the remaining active protein
WNK2(h) = WNK2(h) (Homo sapiens (Human), UniProt Q9Y3S1); assay: Kinase inhibition assay (KinaseProfiler, 33P-ATP); assay type: biochemical; settings: read-out: The percentage of the remaining active protein
CDK5/p25(h) = CDK5/p25(h) (Homo sapiens (Human), UniProt Q00535); assay: Kinase inhibition assay (KinaseProfiler, 33P-ATP); assay type: biochemical; settings: read-out: The percentage of the remaining active protein

SMILES: CCn1nc(C#Cc2cc(C(=O)Nc3ccc(CN4CCN(C)CC4)c(C(F)(F)F)c3)ccc2C)c2c(N)ncnc21 [Compound 3]
IC50 (HBL-1): ~10 µM

IC50 (MM.1S): 2.38 µM
SMILES: Cc1ccc(NC(=O)c2cccc(C(F)(F)F)c2)cc1C#Cc1nn(C2CCN(C)CC2)c2ncnc(N)c12 [Compound 31]

remaining activity at 10 µM (MuSK(h)): 70%
remaining activity at 10 µM [1]: 74%
remaining activity at 10 µM (GRK7(h)): 101%
remaining activity at 10 µM (HIPK3(h)): 81%
remaining activity at 10 µM (Fes(h)): 34%
remaining activity at 10 µM (Rsk1(r)): 20%
remaining activity at 10 µM (Plk3(h)): 93%
remaining activity at 10 µM (LRRK2(h)): 15%
remaining activity at 10 µM (Ret(V804M)(h)): -2%
remaining activity at 10 µM (BrSK2(h)): 93%
remaining activity at 10 µM (IGF-1R(h)): 66%
remaining activity at 10 µM (IRE1(h)): 94%
remaining activity at 10 µM (Met(D1246N)(h)): 103%
remaining activity at 10 µM (IRAK4(h)): 101%
remaining activity at 10 µM [2]: 92%
remaining activity at 10 µM (ACK1): 4%
remaining activity at 10 µM (EphA7): 0%
remaining activity at 10 µM (ZIPK(h)): 110%
remaining activity at 10 µM (CDK4/cyclinD3(h)): 86%
remaining activity at 10 µM (CDK2/cyclinA(h)): 100%
remaining activity at 10 µM (WNK2(h)): 105%
remaining activity at 10 µM (CDK5/p25(h)): 87%
SMILES: Cc1ccc(NC(=O)c2ccc(C)c(C(F)(F)F)c2)cc1C#Cc1nn([C@H]2CC[C@H](O)CC2)c2ncnc(N)c12 [Compound 93]
IC50 (ZR-75-1): ~10 µM
